Results from patent US10017535B2, “Amphiphilic compounds with neuroprotective properties” (USTAV ORGANICKE CHEMIE A BIOCHEMIE AV CR, v.v.i., priority 2014, dated 2018).

What was measured:
[1] = tested on: laboratory mice, strain CD-1; type: in vivo; conditions: intraperitoneally, 1 mg/kg; further: key: −: the desired effect was not observed; −/+: the desired effect was insufficient; +: the desired effect was observed
Procedure: (§1) In the Experimental Part 1 were used adults (30-35 g) male laboratory mice, strain CD-1 from Velaz facility, Czech Republic. Mice were housed in plastic boxes with a 12-hour light cycle (lights on at 7:00 pm). Mice had free access to food and water.
Thus there were prepared solutions of the four steroids for application rates of 0.1, 1, 10 and 100 mg/kg.
Laboratory mouse was chosen as a model organism for this experiment. The following experiments were performed as described in Front Behay. Neurosci.
The purpose of the primary behavioral testing was quickly determined the effect of compounds on CNS dependent functions and any signs of toxicity. A simplified modification Irwin test was selected with respect to the behavioral profile of NMDA receptor antagonists. Mice were tested individually. The study drug was administered intraperitoneally (Table 3) at a dose of 1 mg/kg. The control group consisted of individuals that received the CDX solution or saline.

[2] = tested on: laboratory mice, strain CD-1; experiment: Passive avoidance test (aversive motivated memory); type: in vivo; further: key: −: the desired effect was not observed; −/+: the desired effect was insufficient; +: the desired effect was observed
Procedure: as §1
Aversive motivated memory test was evaluated on the basis of latency input into the preferred, but unpleasant sensation associated with delivery device.

[3] = tested on: NMDA lesion of the dorsal hippocampus in rats; experiment: Active allothetic place avoidance (AAPA) after bilateral excitotoxic NMDA lesion of dorsal hippocampus; type: in vivo, rat Long-Evans strain; conditions: for NMDA lession Improvement in Cognition in AAPA after NMDA Lession: 1 mg/kg after NMDA lesion; on NMDA lession Improvement in Cognition in AAPA after NMDA Lession: key: −: the desired effect was not observed; −/+: the desired effect was insufficient; +: the desired effect was observed
Procedure: In the Experimental Part 2 were used adult (3 months old, 300-400 g) male rat Long-Evans strain. The animals come from herds Institute of Physiology ASCR. The rats were housed in clear plastic boxes with the same light cycle as in mice. Animals had free access to food and water. All experiments were carried out in the light of clay. All experiments were carried out in accordance with the Law on protection of animals against cruelty.
The anesthetized rats were used in operations isoflurane (3.5%, Baxter). To recall excitotoxic lesion of the dorsal hippocampus was applied 0.05 mol·l^−1 solution of NMDA (Sigma-Aldrich) in 0.4 mol·l^−1 phosphate buffer solution prepared by mixing 356 g Na2HPO4.12H2O (Mw358.14) in 4.2 l of distilled water and a solution of 62.4 g NaHPO4. 2H2O (Mw156.01) in 0.8 l of distilled water. The pH of the resulting solution of NMDA was adjusted to 7.4 with NaOH.
In this experiment, the neuroprotective effects were evaluated for amphiphilic steroid compounds. The procedure was performed according to Neuropharmacology 61, 61-68 (2011)
The rats were randomly divided into eleven groups. The control group included operated animals, which were injected by phosphate buffer […] into the hippocampus. In the second group, the animals had NMDA lesions of the hippocampus. The animals of the third group were applied clinically used NMDA antagonist memantine at a dose of 5 mg/kg after NMDA lesion. The other groups were administered the compounds at a dose of 1 mg/kg.
The test was performed in rotating arena with prohibited sector in the form of a circular sector (60°). If the rat entered the sector, its limbs received weak electrical impulse.
Test memory and spatial cognition in rats using AAPA was evaluated over four sessions, which are in healthy rats sufficient to achieve asymptotic level (Behay. Brain. Res. 189, 139-144 (2008)). To evaluate memory and spatial cognition was used data from the fourth session, and the number of entries into the forbidden sector and the maximum avoidance sector. […] After the experiment, the localization of the lesion was histologically verified.
Data were analyzed using the non parametric test of Maim Whitney criteria using the GraphPad. The difference was considered significant for p<0.05, for a non-significant tendency then for 0.05<p<0.075.

[4] = tested on: laboratory mice, strain CD-1; experiment: Elevated plus maze (anxiety); type: in vivo; conditions: vs saline and CDX controls
Procedure: as §1
Amphiphilic steroid compounds were dissolved in a solution of 3 g (2-hydroxypropyl)-β-cyclodextrin (CDX, Sigma-Aldrich) and 157 mg of citric acid ([…], Sigma-Aldrich) in 30 ml of distilled water, the pH was adjusted to 7.4 using sodium hydroxide (NaOH, Sigma-Aldrich). Thus there were prepared solutions of the four steroids for application rates of 0.1, 1, 10 and 100 mg/kg.
The elevated plus maze (EPM) experiment was used to determine the effect of compounds on anxiety of animals at a dose of 1 mg/kg. Two control groups of animals were used to which was applied physiological saline and CDX solution, respectively. A noncompetitive NMDA receptor antagonist—ketamine (10 mg/kg) was given to a comparative group. The compounds were administered to mice intraperitoneally 30 minutes before testing in the EPM.

[5] = 1 mg/kg i.p., 30 minutes before testing
[6] = 1 mg/kg after surgery, vs NMDA group

C[C@@]12CCCCC1[C@@H]1CC[C@@H]3C[C@H](OC(=O)[C@@H](N)CCC(=O)O)CC[C@]3(C)[C@H]1CC2 (stereo partly drawn) [Compound 106, (4S)-4-Amino-5-(((2R,4aS,4bS,6aS,10bS,12aR)-4a,6a-dimethyloctadekahydrochrysen-2-yl)oxy)-5-oxopentanoic acid]
Behavioural Test No Evidence of Toxicity [1]: +
Passive Avoidance Test No Memory Violation [2]: +
NMDA lession Improvement in Cognition in AAPA after NMDA Lession [3]: −

C[C@@]12CCC[C@H]1[C@@H]1CC[C@@H]3C[C@H](OC(=O)[C@@H](N)CCC(=O)O)CC[C@]3(C)[C@H]1CC2 [Compound 130, (4S)-4-Amino-5-(((3R,5R,8S,9S,10S,13S,14S)-10,13-dimethylhexadecahydro-1H-cyclopenta[a]phenanthren-3-yl)oxy)-5-oxopentanoic acid]
number of entries into the open arms [4, 5]: significantly increased
total time spent in the open arms [4, 5]: significantly increased
number of entries into the open arms ([4]; 10 mg/kg): not significantly altered
total time spent in the open arms ([4]; 10 mg/kg): significant increase
Behavioural Test No Evidence of Toxicity [1]: +
Passive Avoidance Test No Memory Violation [2]: +
maximum time avoiding the sector, fourth session of AAPA [3, 6]: significantly increased
number of entries into the forbidden sector, fourth session of AAPA [3, 6]: significant reduction

Pyridinium (3S,3aS,5bR,7aR,9R,11aS,11bS,13aR)-3,11a-dimethylhexadecahydro-1H,3H-naphtho[2′,1′:4,5]indeno[1,7a-c]furan-9-yl 9-sulfate [Compound 124]
Behavioural Test No Evidence of Toxicity [1]: +
Passive Avoidance Test No Memory Violation [2]: −/+
NMDA lession Improvement in Cognition in AAPA after NMDA Lession [3]: −
